# Legend:
# [1] = system: wheat (winter wheat); assay: Test C pre-/postemergence herbicide test; assay type: in vivo, Triticum aestivum; conditions: Preemergence; for Plant response rating (scale of 0 to 100), Wheat: 250 g ai/ha
# How it was run: (§1)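 Greenhouse pots; formulation = non-phytotoxic solvent mix + surfactant. PRE onto seeds in loam:sand; POST at 1–4 leaves (2–18 cm) in peat moss/vermiculite medium. Read-out: visual % control vs untreated, day 13–15.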
# [2] = system: ducksalad; assay: Test C flooded paddy test; assay type: in vivo, Heteranthera limosa; conditions: Flood
# How it was run: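 Visual ratings from 0, no effect, to 100, complete control, were made against untreated controls after 13–15 greenhouse days. Compounds had gone straight into paddy water 3 cm above the soil, kept at that depth, on 2-leaf-stage plants.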
# [3] = system: crabgrass, large; assay: Test A pre-/postemergence herbicide test; assay type: in vivo, Digitaria sanguinalis
# How it was run: (§2)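 Greenhouse pot test with pre- and postemergence application of surfactant-containing solvent formulations. Postemergence plants were 2–10 cm, one- to two-leaf stage. Response scored visually after ~10 days, 0 (no effect) to 100 (complete control).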
# [4] = system: velvetleaf; assay: Test A pre-/postemergence herbicide test; assay type: in vivo, Abutilon theophrasti
# How it was run: as §2
# [5] = system: morningglory; assay: Test A pre-/postemergence herbicide test; assay type: in vivo, Ipomoea spp.
# How it was run: as §2
# [6] = system: blackgrass; assay: Test C pre-/postemergence herbicide test; assay type: in vivo, Alopecurus myosuroides; conditions: Preemergence; for Plant response rating (scale of 0 to 100), Blackgrass: 250 g ai/ha
# How it was run: as §1
# [7] = system: corn; assay: Test A pre-/postemergence herbicide test; assay type: in vivo, Zea mays
# How it was run: as §2
# [8] = 31 g ai/ha, scale 0 to 100, 0 is no effect and 100 is complete control
# [9] = 62 g ai/ha, scale 0 to 100 (0 no effect, 100 complete control)
# [10] = 31 g ai/ha, scale of 0 to 100 where 0 is no effect and 100 is complete control, 13 to 15 days
# [11] = 62 g ai/ha, scale of 0 to 100 where 0 is no effect and 100 is complete control, 13 to 15 days
# [12] = 125 g ai/ha, scale of 0 to 100 where 0 is no effect and 100 is complete control, 13 to 15 days
# [13] = 250 g ai/ha, scale of 0 to 100 where 0 is no effect and 100 is complete control, 13 to 15 days
# [14] = Postemergence, 125 g ai/ha, 0 to 100 scale, 0 is no effect, 100 is complete control
# [15] = Postemergence, 500 g ai/ha, 0 to 100 scale (0 no effect, 100 complete control)
# [16] = Preemergence, 125 g ai/ha, 0 to 100 scale where 0 is no effect and 100 is complete control
# [17] = preemergence, 500 g ai/ha, 0 to 100 scale, 0 is no effect and 100 is complete control
# [18] = 125 g ai/ha, scale 0 to 100 (0 no effect, 100 complete control)
# [19] = 125 g ai/ha, visual rating, 0 to 100 scale, 0 no effect, 100 complete control, approximately 10 days, preemergence
# [20] = Postemergence, 125 g ai/ha, 0 to 100 scale, 0 no effect, 100 complete control
# [21] = Preemergence, 125 g ai/ha, visual rating on 0 to 100 scale (0 no effect, 100 complete control)
# [22] = preemergence, 500 g ai/ha, 0 to 100 scale
Compound,"Wheat plant response rating [1, 8]","Wheat plant response rating [1, 9]","Plant response rating (scale of 0 to 100), Wheat [1]","Plant response rating, Ducksalad [2, 10]","Plant response rating, Ducksalad [2, 11]","Plant response rating, Ducksalad [2, 12]","Plant response rating, Ducksalad [2, 13]","Plant response rating, Crabgrass, Large [3, 14]","Plant response rating, Crabgrass, Large [3, 15]","Plant response rating, Crabgrass, Large [3, 16]","Plant response rating, Crabgrass, Large [3, 17]","Plant response rating, Velvetleaf [4, 16]","Plant response rating, Velvetleaf [4, 17]","Plant response rating, Morningglory [5, 15]","Plant response rating, Morningglory [5, 17]","Blackgrass plant response rating [6, 8]","Plant response rating, Blackgrass [6, 18]","Plant response rating, Corn [7, 14]","Plant response rating, Corn [7, 15]","Plant response rating, Corn [7, 17]",also measured
O=C1NCC(c2ccc(C(F)(F)F)nc2)C1C(=O)Nc1cccc(F)c1F (racemic) [Compound 263],0,10,50,70,90,100,100,80,90,90,100,50,50,60,0,0,40,40,60,70,"Plant response rating, Morningglory [5, 16]: 0; Blackgrass plant response rating [6, 9]: 0; Plant response rating (scale of 0 to 100), Blackgrass [6]: 70; Plant response rating, Corn [7, 16]: 0"
O=C1NCC(c2cccc(C(F)(F)F)c2)C1C(=O)Nc1ccccc1Cl (racemic) [Compound 189],0,0,–,–,–,75,–,60,–,–,90,–,0,–,0,10,55,0,–,0,"Plant response rating, Wheat [1, 18]: 0; Plant response rating, Wheat ([1]; 16 g ai/ha, scale 0 to 100): 0; Plant response rating, Ducksalad ([2]; 250 g ai/ha, scale 0 to 100): 80; Plant response rating, Ducksalad ([2]; 500 g ai/ha, scale 0 to 100): 95; Plant response rating, Ducksalad ([2]; 1000 g ai/ha, scale 0 to 100): 100; Plant response rating, Crabgrass, Large [3, 19]: 90; Crabgrass, Large plant response rating (0 to 100 scale, 0 is no effect, 100 is complete control) ([3]; Postemergence, 500 g ai/ha): 80; Plant response rating, Velvetleaf [4, 19]: 0; Plant response rating, Velvetleaf [4, 14]: 0; Velvetleaf plant response rating (0 to 100 scale, 0 is no effect, 100 is complete control) ([4]; Postemergence, 500 g ai/ha): 0; Plant response rating, Morningglory [5, 19]: 0; Plant response rating, Morningglory [5, 14]: 0; Morningglory plant response rating (0 to 100 scale, 0 is no effect, 100 is complete control) ([5]; Postemergence, 500 g ai/ha): 0; Plant response rating, Blackgrass ([6]; 62 g ai/ha, scale 0 to 100): 50; Plant response rating, Blackgrass ([6]; 16 g ai/ha, scale 0 to 100): 0; Plant response rating, Corn [7, 19]: 0; Corn plant response rating (0 to 100 scale, 0 is no effect, 100 is complete control) ([7]; Postemergence, 500 g ai/ha): 60"
O=C1NCC(c2ccc(F)cc2)C1C(=O)Nc1ccccc1F (racemic) [Compound 16],–,–,–,0,40,85,–,–,90,–,–,–,–,10,–,–,10,–,30,–,"Plant response rating, Wheat ([1]; 62 g ai/ha, scale 0 to 100): 0; Plant response rating, Wheat [1, 18]: 0; Plant response rating, Ducksalad ([2]; 250 g ai/ha, scale 0 to 100): 100; Plant response rating, Crabgrass, Large [3, 20]: 90; Crabgrass, Large plant response rating [3, 21]: 90; Plant response rating, Crabgrass, Large [3, 22]: 90; Plant response rating, Velvetleaf [4, 20]: 0; Plant response rating, Velvetleaf [4, 15]: 0; Velvetleaf plant response rating [4, 21]: 0; Plant response rating, Velvetleaf [4, 22]: 0; Plant response rating, Morningglory [5, 20]: 0; Morningglory plant response rating [5, 21]: 0; Plant response rating, Morningglory [5, 22]: 0; Blackgrass plant response rating ([6]; 31 g ai/ha, scale 0 to 100 (0 no effect, 100 complete control)): 0; Plant response rating, Blackgrass ([6]; 62 g ai/ha, scale 0 to 100): 5; Plant response rating, Corn [7, 20]: 0; Corn plant response rating [7, 21]: 0; Plant response rating, Corn [7, 22]: 30"
O=C1NCC(c2ccc(C(F)(F)F)c(F)c2)C1C(=O)Nc1cccc(F)c1F (racemic) [Compound 247],0,0,0,–,–,–,75,50,70,90,90,0,0,0,0,0,60,0,20,0,"Plant response rating, Ducksalad ([2]; 500 g ai/ha, scale 0 to 100): 85; Plant response rating, Ducksalad ([2]; 1000 g ai/ha, scale 0 to 100): 100; Plant response rating, Ducksalad ([2]; 2000 g ai/ha, scale 0 to 100): 100; Plant response rating, Velvetleaf [4, 14]: 0; Plant response rating, Velvetleaf [4, 15]: 0; Plant response rating, Morningglory [5, 14]: 0; Plant response rating, Morningglory [5, 16]: 0; Blackgrass plant response rating [6, 9]: 50; Plant response rating (scale of 0 to 100), Blackgrass [6]: 70; Plant response rating, Corn [7, 16]: 0"
